Assays:
Assay type in all cases: in vivo
[1] = test system: foxtail, giant (giant foxtail, Setaria faberii); assay: Test C postemergence, plant response rating; details: Setaria faberi, post-emergence
In short: (§1)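 Pre-emergence: seeds sown in loam soil–sand blend or silt loam and sprayed with test chemicals in a non-phytotoxic solvent mixture with surfactant. Post-emergence: plants 2 to 18 cm (1- to 4-leaf stage) in peat-based potting medium, same formulation. Greenhouse 13 to 15 d; visual rating 0 (no effect) to 100 (complete control) versus controls.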

[2] = test system: oat, wild (wild oat Avena fatua); assay: Test C postemergence, plant response rating; details: Avena fatua, post-emergence
In short: as §1

[3] = test system: wheat (winter wheat, Triticum aestivum); assay: Test C postemergence, plant response rating; details: Triticum aestivum, post-emergence
In short: as §1

soybean (Glycine max) = assay: Test C postemergence, plant response rating; details: Glycine max, post-emergence
In short: as §1

[4] = test system: ryegrass, Italian (Italian ryegrass, Lolium multiflorum); assay: Test C postemergence, plant response rating; details: Lolium multiflorum, post-emergence
In short: as §1

[5] = test system: crabgrass, large (large crabgrass, Digitaria sanguinalis); assay: Test C postemergence, plant response rating; details: Digitaria sanguinalis, post-emergence
In short: as §1

[6] = test system: blackgrass (Alopecurus myosuroides); assay: Test C postemergence, plant response rating; details: Alopecurus myosuroides, post-emergence
In short: as §1

[7] = test system: lambsquarters (Chenopodium album); assay: Test C postemergence, plant response rating; details: Chenopodium album, post-emergence
In short: as §1

corn (Zea mays) = assay: Test C postemergence, plant response rating; details: Zea mays, post-emergence
In short: as §1

[8] = test system: chickweed (common chickweed, Stellaria media); assay: Test C postemergence, plant response rating; details: Stellaria media, post-emergence
In short: as §1

[9] = test system: nutsedge, yellow (yellow nutsedge, Cyperus esculentus); assay: Test C postemergence, plant response rating; details: Cyperus, post-emergence
In short: as §1

[10] = test system: galium (catchweed bedstraw, Galium aparine); assay: Test C postemergence, plant response rating; details: Galium, post-emergence
In short: as §1

[11] = test system: ragweed (common ragweed, Ambrosia elatior); assay: Test A preemergence, visual injury rating; details: Ambrosia artemisiifolia, pre-emergence, 240 h, 0 to 100 scale (0 no effect, 100 complete control), read-out: Ragweed plant response rating
In short: (§2)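 Pre- and postemergence greenhouse screen. Soil: loam + sand. Spray carrier: solvent mixture, non-phytotoxic, with surfactant. Post timing at 1–2 leaves, height 2–10 cm. Readout: visual injury on a 0–100 scale roughly 10 days after application, untreated plants as reference.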

[12] = test system: barnyardgrass (Echinochloa crus-galli); assay: Test A preemergence, visual injury rating; details: Echinochloa crus-galli, pre-emergence, 240 h, 0 to 100 scale (0 no effect, 100 complete control), read-out: Barnyardgrass plant response rating
In short: as §2

[13] = test system: Italian ryegrass (Lolium multiflorum); assay: Test A preemergence, visual injury rating; details: Lolium multiflorum, pre-emergence, 240 h, 0 to 100 scale (0 no effect, 100 complete control), read-out: Ryegrass, Italian plant response rating
In short: as §2

[14] = test system: pigweed (Amaranthus retroflexus); assay: Test A preemergence, visual injury rating; details: Amaranthus retroflexus, pre-emergence, 240 h, 0 to 100 scale (0 no effect, 100 complete control), read-out: Pigweed plant response rating
In short: as §2

[15] = test system: giant foxtail (Setaria faberii); assay: Test A preemergence, visual injury rating; details: Setaria faberi, pre-emergence, 240 h, 0 to 100 scale (0 no effect, 100 complete control), read-out: Foxtail, Giant plant response rating
In short: as §2

kochia (Kochia scoparia) = assay: Test A preemergence, visual injury rating; details: Bassia scoparia, pre-emergence, 240 h, 0 to 100 scale (0 no effect, 100 complete control), read-out: Kochia plant response rating
In short: as §2

In the case of `CCCOC(=O)c1c(Br)cccc1Oc1ncc(Cl)cn1` [Compound 13, propyl 2-bromo-6-[(5-chloro-2-pyrimidinyl)oxy]benzoate], the pest or weed control at 4 g/ha ([1]; 4 g ai/ha, scale of 0 to 100) is reported as 5%, the pest or weed control at 8 g/ha ([1]; 8 g ai/ha, scale of 0 to 100) is reported as 5% and the pest or weed control at 16 g/ha ([1]; 16 g ai/ha, scale 0 to 100) is reported as 10%. The pest or weed control at 31 g/ha ([1]; 31 g ai/ha, scale 0 to 100) was 25%, the pest or weed control at 4 g/ha ([2]; 4 g ai/ha, scale of 0 to 100) was 0% and the pest or weed control at 8 g/ha ([2]; 8 g ai/ha, scale of 0 to 100) was 0%. For the same compound, the pest or weed control at 16 g/ha ([2]; 16 g ai/ha, scale 0 to 100) was 0%, the pest or weed control at 31 g/ha ([2]; 31 g ai/ha, scale 0 to 100) was 5% and the plant injury at 4 g/ha ([3]; 4 g ai/ha, scale of 0 to 100) was 0%. It also gave a plant injury at 8 g/ha ([3]; 8 g ai/ha, scale of 0 to 100) of 0%, a plant injury at 16 g/ha ([3]; 16 g ai/ha, scale 0 to 100) of 0% and a plant injury at 31 g/ha ([3]; 31 g ai/ha, scale 0 to 100) of 0%. For the same compound, the plant injury at 4 g/ha (soybean (Glycine max); 4 g ai/ha, scale of 0 to 100) was 15%, the plant injury at 8 g/ha (soybean (Glycine max); 8 g ai/ha, scale of 0 to 100) was 20% and the plant injury at 16 g/ha (soybean (Glycine max); 16 g ai/ha, scale 0 to 100) was 30%. For the same compound, the plant injury at 31 g/ha (soybean (Glycine max); 31 g ai/ha, scale 0 to 100) was 35%, the pest or weed control at 4 g/ha ([4]; 4 g ai/ha, scale of 0 to 100) was 0% and the pest or weed control at 8 g/ha ([4]; 8 g ai/ha, scale of 0 to 100) was 0%. It also gave a pest or weed control at 16 g/ha ([4]; 16 g ai/ha, scale 0 to 100) of 0%, a pest or weed control at 31 g/ha ([4]; 31 g ai/ha, scale 0 to 100) of 0% and a pest or weed control at 4 g/ha ([5]; 4 g ai/ha, scale of 0 to 100) of 5%. The pest or weed control at 8 g/ha ([5]; 8 g ai/ha, scale of 0 to 100) was 5%, the pest or weed control at 16 g/ha ([5]; 16 g ai/ha, scale 0 to 100) was 5% and the pest or weed control at 31 g/ha ([5]; 31 g ai/ha, scale 0 to 100) was 15%. For the same compound, the pest or weed control at 4 g/ha ([6]; 4 g ai/ha, scale of 0 to 100) was 0%, the pest or weed control at 8 g/ha ([6]; 8 g ai/ha, scale of 0 to 100) was 0% and the pest or weed control at 16 g/ha ([6]; 16 g ai/ha, scale 0 to 100) was 0%. The pest or weed control at 31 g/ha ([6]; 31 g ai/ha, scale 0 to 100) was 5%, the pest or weed control at 4 g/ha ([7]; 4 g ai/ha, scale of 0 to 100) was 30% and the pest or weed control at 8 g/ha ([7]; 8 g ai/ha, scale of 0 to 100) was 60%. The pest or weed control at 16 g/ha ([7]; 16 g ai/ha, scale 0 to 100) was 50%, the pest or weed control at 31 g/ha ([7]; 31 g ai/ha, scale 0 to 100) was 55% and the Corn plant response rating (crop injury, 0 = no effect, 100 = complete kill) at 4 g/ha (corn (Zea mays); 4 g ai/ha, scale of 0 to 100) was 5%. The Corn plant response rating (crop injury, 0 = no effect, 100 = complete kill) at 8 g/ha (corn (Zea mays); 8 g ai/ha, scale of 0 to 100) was 5%, the Corn plant response rating (crop injury, 0 = no effect, 100 = complete kill) at 16 g/ha (corn (Zea mays); 16 g ai/ha, scale 0 to 100) was 10% and the Corn plant response rating (crop injury, 0 = no effect, 100 = complete kill) at 31 g/ha (corn (Zea mays); 31 g ai/ha, scale 0 to 100) was 5%. For the same compound, the pest or weed control at 4 g/ha ([8]; 4 g ai/ha, scale of 0 to 100) was 5%, the pest or weed control at 8 g/ha ([8]; 8 g ai/ha, scale of 0 to 100) was 5% and the pest or weed control at 16 g/ha ([8]; 16 g ai/ha, scale 0 to 100) was 40%. For the same compound, the pest or weed control at 31 g/ha ([8]; 31 g ai/ha, scale 0 to 100) was 70%, the pest or weed control at 4 g/ha ([9]; 4 g ai/ha, scale of 0 to 100) was 0% and the pest or weed control at 8 g/ha ([9]; 8 g ai/ha, scale of 0 to 100) was 0%. It also gave a pest or weed control at 16 g/ha ([9]; 16 g ai/ha, scale 0 to 100) of 5%, a pest or weed control at 31 g/ha ([9]; 31 g ai/ha, scale 0 to 100) of 5% and a pest or weed control at 4 g/ha ([10]; 4 g ai/ha, scale of 0 to 100) of 10%. The pest or weed control at 8 g/ha ([10]; 8 g ai/ha, scale of 0 to 100) was 5%, the pest or weed control at 16 g/ha ([10]; 16 g ai/ha, scale 0 to 100) was 65% and the pest or weed control at 31 g/ha ([10]; 31 g ai/ha, scale 0 to 100) was 50%. For the same compound, the pest or weed control at 125 g/ha ([11]; 125 g ai/ha) was 0%, the pest or weed control at 500 g/ha ([11]; 500 g ai/ha) was 0% and the pest or weed control at 125 g/ha ([12]; 125 g ai/ha) was 100%. It also gave a pest or weed control at 500 g/ha ([12]; 500 g ai/ha) of 100%, a pest or weed control at 125 g/ha ([13]; 125 g ai/ha) of 10% and a pest or weed control at 500 g/ha ([13]; 500 g ai/ha) of 90%. The pest or weed control at 125 g/ha ([14]; 125 g ai/ha) was 100%, the pest or weed control at 500 g/ha ([14]; 500 g ai/ha) was 100% and the pest or weed control at 125 g/ha ([15]; 125 g ai/ha) was 100%. The pest or weed control at 500 g/ha ([15]; 500 g ai/ha) was 100%, the pest or weed control at 125 g/ha (kochia (Kochia scoparia); 125 g ai/ha) was 90% and the pest or weed control at 500 g/ha (kochia (Kochia scoparia); 500 g ai/ha) was 100%.
